In patent publication US12441754B2, “Galactoside inhibitor of galectins” (GALECTO BIOTECH AB, priority 2019, dated 2025):

Assays:
Galectin-1 = Galectin-1 (Homo sapiens, UniProt P09382); assay: fluorescence anisotropy assay, compound as inhibitor of galectin / fluorescein tagged saccharide probe interaction; type: binding
Excerpt: (§1) Anal. Biochem. 334: 36-47, (Sörme et al., 2004) and Monovalent interactions of Galectin-1 By Salomonsson, Emma; Larumbe, Amaia; Tejler, Johan; Tullberg, Erik; Rydberg, Hanna; Sundin, Anders; Khabut, Areej; Frejd, Torbjorn; Lobsanov, Yuri D.; Rini, James M.; et al, From Biochemistry (2010), 49(44), 9518-9532, (Salomonsson et al., 2010).

Galectin-3 = Galectin-3 (Homo sapiens, UniProt P17931); assay: as above; type: binding
Galectin-3, sequence (P17931 whole entry): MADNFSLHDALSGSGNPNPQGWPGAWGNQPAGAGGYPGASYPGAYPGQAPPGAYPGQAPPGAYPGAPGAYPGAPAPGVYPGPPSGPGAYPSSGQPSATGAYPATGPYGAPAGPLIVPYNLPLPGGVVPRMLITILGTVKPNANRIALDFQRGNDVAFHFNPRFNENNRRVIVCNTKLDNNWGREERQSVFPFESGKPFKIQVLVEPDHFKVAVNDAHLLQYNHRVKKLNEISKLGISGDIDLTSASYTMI
Excerpt: as §1

Galectin-1, sequence (P09382 whole entry): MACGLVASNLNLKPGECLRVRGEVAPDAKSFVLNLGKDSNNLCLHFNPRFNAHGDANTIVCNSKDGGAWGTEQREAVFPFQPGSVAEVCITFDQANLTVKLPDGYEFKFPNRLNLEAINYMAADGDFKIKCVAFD

Row | SMILES | Kd (Galectin-1) | Kd (Galectin-3)
1 | OC[C@H]1O[C@H](Sc2cncc(Cl)c2)[C@H](O)[C@@H](n2cc(-c3nc(Cl)cs3)nn2)[C@H]1O [Example 48, 5-Chloropyridin-3-yl 3-[4-(4-chlorothiazol-2-yl)-1H-1,2,3-triazol-1-yl]-3-deoxy-1-thio-α-D-galactopyranoside] | 0.15 µM | 0.42 µM
2 | OC[C@H]1O[C@H](Sc2cncc(Br)c2)[C@H](O)[C@@H](n2cc(-c3nc(Cl)cs3)nn2)[C@H]1O [Example 49, 5-Bromopyridin-3-yl 3-[4-(4-chlorothiazol-2-yl)-1H-1,2,3-triazol-1-yl]-3-deoxy-1-thio-α-D-galactopyranoside] | 0.15 µM | 0.19 µM
3 | N#Cc1ccc(Cl)cc1S[C@H]1O[C@H](CO)[C@H](O)[C@H](n2cc(-c3nc(Cl)cs3)nn2)[C@H]1O [Example 50, 5-Chloro-2-cyanophenyl 3-[4-(4-chlorothiazol-2-yl)-1H-1,2,3-triazol-1-yl]-3-deoxy-1-thio-α-D-galactopyranoside] | 0.11 µM | 0.23 µM
4 | N#Cc1cc(Cl)cc(S[C@H]2O[C@H](CO)[C@H](O)[C@H](n3cc(-c4nc(Cl)cs4)nn3)[C@H]2O)c1 [Example 51, 3-Chloro-5-cyanophenyl 3-[4-(4-chlorothiazol-2-yl)-1H-1,2,3-triazol-1-yl]-3-deoxy-1-thio-α-D-galactopyranoside] | 0.25 µM | 0.37 µM
5 | N#Cc1ccc(S[C@H]2O[C@H](CO)[C@H](O)[C@H](n3cc(-c4nc(Cl)cs4)nn3)[C@H]2O)cc1Cl [Example 52, 3-Chloro-4-cyanophenyl 3-[4-(4-chlorothiazol-2-yl)-1H-1,2,3-triazol-1-yl]-3-deoxy-1-thio-α-D-galactopyranoside] | 0.17 µM | 0.41 µM
6 | CO[C@@H]1[C@@H](n2cc(-c3nc(Cl)cs3)nn2)[C@@H](O)[C@@H](CO)O[C@@H]1Sc1cncc(Cl)c1 [Example 53, 5-Chloropyridin-3-yl 3-[4-(4-chlorothiazol-2-yl)-1H-1,2,3-triazol-1-yl]-3-deoxy-2-O-methyl-1-thio-α-D-galactopyranoside] | 0.054 µM | 0.34 µM
7 | CO[C@@H]1[C@@H](n2cc(-c3nc(Cl)cs3)nn2)[C@@H](O)[C@@H](CO)O[C@@H]1Sc1cncc(Br)c1 [Example 54, 5-Bromopyridin-3-yl 3-[4-(4-chlorothiazol-2-yl)-1H-1,2,3-triazol-1-yl]-3-deoxy-2-O-methyl-1-thio-α-D-galactopyranoside] | 0.09 µM | 0.19 µM
8 | CO[C@@H]1[C@@H](n2cc(-c3nc(Cl)c(Cl)s3)nn2)[C@@H](O)[C@@H](CO)O[C@@H]1Sc1cc(Br)cnc1C#N [Example 55, 5-Bromo-2-cyanopyridin-3-yl 3-[4-(4,5-dichlorothiazol-2-yl)-1H-1,2,3-triazol-1-yl]-3-deoxy-2-O-methyl-1-thio-α-D-galactopyranoside] | 0.15 µM | 0.028 µM
9 | CO[C@@H]1[C@@H](n2cc(-c3nccs3)nn2)[C@@H](O)[C@@H](CO)O[C@@H]1Sc1cc(Br)ccc1C#N [Example 56, 5-Bromo-2-cyanophenyl 3-deoxy-2-O-methyl-3-[4-(2-thiazolyl)-1H-1,2,3-triazol-1-yl]-1-thio-α-D-galactopyranoside] | 0.096 µM | 2.1 µM
10 | CO[C@@H]1[C@@H](n2cc(-c3nc(Cl)cs3)nn2)[C@@H](O)[C@@H](CO)O[C@@H]1Sc1cc(Br)ccc1C#N [Example 57, 5-Bromo-2-cyanophenyl 3-[4-(4-chlorothiazol-2-yl)-1H-1,2,3-triazol-1-yl]-3-deoxy-2-O-methyl-1-thio-α-D-galactopyranoside] | 0.021 µM | 0.14 µM
11 | CO[C@@H]1[C@@H](n2cc(-c3csc(O)n3)nn2)[C@@H](O)[C@@H](CO)O[C@@H]1Sc1cc(Br)ccc1C#N [Example 58, 5-Bromo-2-cyanophenyl 3-deoxy-3-[4-(2-hydroxythiazol-4-yl)-1H-1,2,3-triazol-1-yl]-2-O-methyl-1-thio-α-D-galactopyranoside] | 0.022 µM | 2 µM
12 | CO[C@@H]1[C@@H](n2cc(-c3csc(N)n3)nn2)[C@@H](O)[C@@H](CO)O[C@@H]1Sc1cc(Br)ccc1C#N [Example 59, 5-Bromo-2-cyanophenyl 3-[4-(2-aminothiazol-4-yl)-1H-1,2,3-triazol-1-yl]-3-deoxy-2-O-methyl-1-thio-α-D-galactopyranoside] | 0.054 µM | 2.2 µM
13 | CNC(=O)c1ccc(Br)cc1S[C@H]1OC(CO)[C@H](O)C(n2cc(-c3nc(Cl)cs3)nn2)C1OC (stereo partly drawn) [Example 60, 5-Bromo-2-(N-methyl-carbonyl)phenyl 3-[4-(4-chlorothiazol-2-yl)-1H-1,2,3-triazol-1-yl]-3-deoxy-2-O-methyl-1-thio-α-D-galactopyranoside] | 0.039 µM | 0.18 µM
14 | CNC(=O)c1ccc(Br)cc1S[C@H]1OC(CO)[C@H](O)C(n2cc(-c3nccs3)nn2)C1OC (stereo partly drawn) [Example 61, 5-Bromo-2-(N-methyl-carbonyl)phenyl 3-deoxy-2-O-methyl-3-[4-(2-thiazolyl)-1H-1,2,3-triazol-1-yl]-1-thio-α-D-galactopyranoside] | 0.08 µM | 3 µM
15 | CNC(=O)c1ccc(Cl)cc1S[C@H]1OC(CO)[C@H](O)C(n2cc(-c3nccs3)nn2)C1OC (stereo partly drawn) [Example 62, 5-Chloro-2-(N-methyl-carbonyl)phenyl 3-deoxy-2-O-methyl-3-[4-(2-thiazolyl)-1H-1,2,3-triazol-1-yl]-1-thio-α-D-galactopyranoside] | 0.078 µM | 3.1 µM
16 | CO[C@@H]1[C@@H](n2cc(-c3nc(C)cs3)nn2)[C@@H](O)[C@@H](CO)O[C@@H]1Sc1cc(Br)ccc1C#N [Example 63, 5-Bromo-2-cyanophenyl 3-deoxy-3-[4-(4-methylthiazol-2-yl)-1H-1,2,3-triazol-1-yl]-2-O-methyl-1-thio-α-D-galactopyranoside] | 0.054 µM | 2.9 µM
17 | CO[C@@H]1[C@@H](n2cc(-c3nc(C)c(Cl)s3)nn2)[C@@H](O)[C@@H](CO)O[C@@H]1Sc1cc(Br)cnc1C#N [Example 64, 5-Bromo-2-cyanopyridin-3-yl 3-[4-(5-chloro-4-methylthiazol-2-yl)-1H-1,2,3-triazol-1-yl]-3-deoxy-2-O-methyl-1-thio-α-D-galactopyranoside] | 0.28 µM | 0.22 µM
18 | CO[C@@H]1[C@@H](n2cc(-c3nc(C)c(Cl)s3)nn2)[C@@H](O)[C@@H](CO)O[C@@H]1Sc1cc(Br)ccc1C#N [Example 65, 5-Bromo-2-cyanophenyl 3-[4-(5-chloro-4-methylthiazol-2-yl)-1H-1,2,3-triazol-1-yl]-3-deoxy-2-O-methyl-1-thio-α-D-galactopyranoside] | 0.46 µM | 0.24 µM
19 | CO[C@@H]1[C@@H](n2cc(-c3nccs3)nn2)[C@@H](O)[C@@H](CO)O[C@@H]1Sc1cc(Cl)ccc1Cl [Example 66, 2,5-Dichlorophenyl 3-deoxy-2-O-methyl-3-[4-(2-thiazolyl)-1H-1,2,3-triazol-1-yl]-1-thio-α-D-galactopyranoside] | 0.22 µM | 4.1 µM
20 | CO[C@@H]1[C@@H](n2cc(-c3nccs3)nn2)[C@@H](O)[C@@H](CO)O[C@@H]1Sc1cc(Br)ccc1Cl [Example 67, 5-Bromo-2-chlorophenyl 3-deoxy-2-O-methyl-3-[4-(2-thiazolyl)-1H-1,2,3-triazol-1-yl]-1-thio-α-D-galactopyranoside] | 0.26 µM | 3.5 µM
21 | CO[C@@H]1[C@@H](n2cc(-c3nccs3)nn2)[C@@H](O)[C@@H](CO)O[C@@H]1Sc1cc(Cl)ccc1F [Example 68, 5-Chloro-2-fluorophenyl 3-deoxy-2-O-methyl-3-[4-(2-thiazolyl)-1H-1,2,3-triazol-1-yl]-1-thio-α-D-galactopyranoside] | 0.25 µM | 4.4 µM
22 | CO[C@@H]1[C@@H](n2cc(-c3nc(C)cs3)nn2)[C@@H](O)[C@@H](CO)O[C@@H]1Sc1cc(Br)ccc1F [Example 69, 5-Bromo-2-fluorophenyl 3-deoxy-3-[4-(4-methylthiazol-2-yl)-1H-1,2,3-triazol-1-yl]-2-O-methyl-1-thio-α-D-galactopyranoside] | 0.65 µM | 12 µM
23 | N#Cc1ncc(Cl)cc1S[C@H]1O[C@H](CO)[C@H](O)[C@H](n2cc(-c3csc(Cl)n3)nn2)[C@H]1O [Example 70, 5-Chloro-2-cyanopyridin-3-yl 3-[4-(2-chlorothiazol-4-yl)-1H-1,2,3-triazol-1-yl]-3-deoxy-1-thio-α-D-galactopyranoside] | 0.33 µM | 0.42 µM
24 | CCO[C@@H]1[C@@H](n2cc(-c3nccs3)nn2)[C@@H](O)[C@@H](CO)O[C@@H]1Sc1cc(Cl)cnc1C#N [Example 71, 5-Chloro-2-cyanopyridin-3-yl 3-deoxy-2-O-ethyl-3-[4-(2-thiazolyl)-1H-1,2,3-triazol-1-yl]-1-thio-α-D-galactopyranoside] | 0.12 µM | 3.6 µM
25 | CCO[C@@H]1[C@@H](n2cc(-c3csc(N)n3)nn2)[C@@H](O)[C@@H](CO)O[C@@H]1Sc1cc(Cl)cnc1C#N [Example 72, 5-Chloro-2-cyanopyridin-3-yl 3-[4-(2-aminothiazol-4-yl)-1H-1,2,3-triazol-1-yl]-3-deoxy-2-O-ethyl-1-thio-α-D-galactopyranoside] | 0.44 µM | 3 µM
26 | CO[C@@H]1[C@@H](n2cc(-c3csc(N)n3)nn2)[C@@H](O)[C@@H](CO)O[C@@H]1Sc1cc(Cl)ccc1C#N [Example 73, 5-Chloro-2-cyanophenyl 3-[4-(2-aminothiazol-4-yl)-1H-1,2,3-triazol-1-yl]-3-deoxy-2-O-methyl-1-thio-α-D-galactopyranoside] | 0.056 µM | 3.2 µM
27 | Nc1nc(-c2cn([C@@H]3[C@@H](O)[C@@H](Sc4cc(Cl)cnc4-c4ncc[nH]4)O[C@H](CO)[C@@H]3O)nn2)cs1 [Example 74, 5-Chloro-2-(1H-imidazol-2-yl)pyridin-3-yl 3-[4-(2-aminothiazol-4-yl)-1H-1,2,3-triazol-1-yl]-3-deoxy-1-thio-α-D-galactopyranoside] | 0.36 µM | 11.3 µM
